The results in this text go back to patent US20220395500A1, “SMALL MOLECULE ACTIVATORS OF INTERFERON REGULATORY FACTOR 3 AND METHODS OF USE THEREOF” (Neuralexo, Inc., priority 2020, published 2022).

Series [1] concerns IRF-Lucia luciferase reporter (ISRE) in THP1-Dual cells. Description: THP1-Dual IRF-Lucia luciferase reporter assay (ISRE activation). It counts as cell-based, human. The settings on record: THP1-Dual. The method, boiled down: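 THP1-Dual cells were differentiated with 5 ng/mL PMA for 48 h at 37° C, washed, then treated with compounds at 10 μM final for 24 h; LPS at 313 ng/mL served as control. ISRE-driven Lucia luciferase in supernatant was read by luminescence.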

Series [2] in a line: THP1-Dual cytotoxicity (Cell Titer Glo, ATP). Type of series: cell-based, human. The settings on record: human, THP1-Dual cells. An outline of the steps: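 Human THP1-Dual cells were treated across an 8-point dose-response range. Cytotoxicity was measured in-plate by CellTiter-Glo luminescence, which quantifies ATP as a marker of metabolically active cells, and CC50 was taken as the 50% cytotoxic concentration.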
(In general: In ATP-based viability assays light output follows the ATP content of the culture.)

For series [3], the system named is IRF-Lucia luciferase reporter (ISRE) in J774-Dual cells. Description: J774-Dual IRF-Lucia luciferase reporter assay (ISRE activation). Type of series: cell-based, mouse. Particulars: J774-Dual. The protocol:
First, optimal assay conditions and assay quality in 384-well format were determined. As mentioned, the mouse macrophage J774 cell line (J774-Dual, InvivoGen) stably transfected with the same inducible reporters described above (e.g., IRF-Lucia luciferase and NF-κB-SEAP) was used. The responsiveness of the J774-Dual cell line was investigated in an array of assay conditions to obtain sensitive and reproducible results for the activation of the IRF and NF-κB reporters. An optimal plating density and conditions for these cells was established for these cells in a 384-well format. Assay work-flow is similar to that discussed above for the THP1-Dual assay without a need for cell differentiation. Thus, cells are seeded directly in growth medium and incubated at 37° C. in a 5% C02 incubator for 24 hours prior to the programmed treatments being added as described herein.
The primary high throughput screen used the HTS platform of human THP1 monocyte cells containing the IRF-Lucia luciferase and NFκB-SEAP (secreted embryonic alkaline phosphatase) dual reporter (THP1-Dual, Invivogen), enabling the simultaneous study of the IRF and NFκB signaling pathways respectively. As discussed, the Lucia luciferase reporter gene is under the control of an ISG54 (interferon-stimulated gene) minimal promoter in conjunction with five interferon-stimulated response elements (ISRE). The SEAP gene is driven by an IFNβ minimal promoter fused to five copies of the NFκB consensus transcriptional response element and three copies of the c-Rel binding site. Both IRF-Lucia luciferase and NFκB-SEAP reporter proteins are secreted and readily measurable in the cell culture supernatant when using QUANTI-Luc™ and QUANTI-Blue™ detection reagents, respectively. Identified “hits” were confirmed in a secondary screen with an 8-point dose response curve. Hits were further screened for activity in the mouse using the mouse J774 macrophage-like cell line containing the identical reporter constructs (J774-Dual, Invivogen).
The OTRADI Small Molecule Library of approximately 246,000 diverse compounds (see below for description) was screened using the THP1-Dual based HTS platform described above. All transfer steps in the screen are fully automated, thus reducing variability. Primary screening included a single data point or dose for each molecule. After data normalization was applied for each assay run, “hit” selection was performed on the plates that pass the quality control (QC) criterion. Hits were defined as samples having values above the activity cutoff determined based on noise level of the assay to reduce false positive rates. In the pilot study discussed above this activity value was >3σ above the ISRE mean with the added criteria of NFκB activation being lower than […] from the mean to identify IRF selective compounds. The ratio of ISRE:NFκB activity was also calculated as a selectivity index for prioritizing hit selection. Primary hits underwent secondary screening to determine the 50% effective concentration (EC50) and 50% cytotoxic concentration (CC50) of these agents using an 8-point dose-response curve in the human THP1-Dual cells. Cytotoxicity was measured in the plate using Cell Titer Glo (Promega). Identified candidate compounds were further screened (orthogonal screen) for cross species activity in the validated mouse J774-Dual assay using an 8-point dose-response format to determine EC50 and CC50 values as well as ISRE:NFκB ratios. A general process flow for the experimental design laid out above is depicted at FIG. 12.
For orientation: Reporter assays use an easily measured gene product as a stand-in for the process of interest.

Series [4] deals with SH-SY5Y cells. Description: Gene induction in SH-SY5Y cells (qtPCR). It counts as cell-based, human. Particulars: 20 μM, 3 hours, preliminary results. The protocol:
FIG. 11 is a bar graph showing that the human-specific IRF activator AV-C induces robust IFIT1 and RSAD2 expression, with no increase in TNF expression. SH-SY5Y cells were treated with 20 μM AV-C for 3 hours. RNA was collected from cell pellets and qtPCR was performed with indicated primers. Values at FIG. 11 are normalized to actin and presented as fold change over vehicle control.
To determine if the human specific IRF activator, AV-C could induce IRF activated genes, the human neuroblastoma cell line SH-SY5Y was stimulated with 20 μM AV-C for 3 hours. […] Specifically, as mentioned, SH-SY5Y cells were treated with 20 μM AV-C for 3 hours. RNA was collected from cell pellets and qtPCR was performed with indicated primers. Values at FIG. 11 are normalized to actin and presented as fold change over vehicle control.

Take `CC(C)c1nnc(N2C(=O)c3oc4ccccc4c(=O)c3C2c2ccccc2F)s1` (stereo not drawn) [AV-C, 1-(2-fluorophenyl)-2-(5-isopropyl-1,3,4-thiadiazol-2-yl)-1,2-dihydrochromeno[2,3-c]pyrrole-3,9-dione, reference compound]: in series [1] (Homo sapiens, THP1-Dual control compound, 8-point dose response, read-out: EC50 ISRE activation), the EC50 (usually the concentration at which the effect is half-maximal) was found to be 5.3 µM. Moreover, the results for the “ISRE response, % of LPS maximum” value in series [1] (25 μM) and in series [3] (25 μM) were 75% and 10%, respectively. Further, in series [1] (at its EC50), the “IRF signal intensity relative to LPS control” value was approximately 10%. Also, the CC50 – broadly, the concentration at which the toxic effect on the cells reaches its halfway point – in series [2] (THP1-Dual control compound, 8-point dose response, read-out: CC50) came out at 7.9 µM. In addition, the selectivity ratio in series [2] (read-out: Selectivity Index (CC50/EC50) (text: toxicity index)) came to 1.5. Moreover, the “IRF activation in mouse cells” value in series [3] is reported as “minimal IRF activation”. The “IFIT1 and RSAD2 expression” value in series [4] is on record as “increased”. In addition, in series [4], the TNF expression result is given as “no increase”.
